Legend:
[1] = biological target: Tyrosine-protein kinase Fyn (Homo sapiens, UniProt P06241); test: Inhibition of His-tagged full length human recombinant FYN expressed in baculovirus using Fluorescein-Poly GT as substrate
[2] = Tmax in Swiss mouse plasma at 2 mg/kg, iv by LC/MS/MS analysis; format: ADME, organism-based
[3] = biological target: Protein kinase C theta type (Homo sapiens) (UniProt Q04759); conditions: 100 nM
Description: Inhibition of full length His-tagged human recombinant PKCtheta expressed in baculovirus using Fluorescein-PKC as substrate at 100 nM

[4] = biological target: Mast/stem cell growth factor receptor Kit (Homo sapiens) (UniProt P10721); conditions: 100 nM
Description: Inhibition of His-tagged human recombinant cKIT expressed in baculovirus using Fluorescein-Poly GT as substrate at 100 nM

[5] = biological target: Tyrosine-protein kinase Fer (Homo sapiens) (UniProt P16591); conditions: 100 nM
Description: Inhibition of His-tagged human recombinant FER (541 to 822 residues) expressed in baculovirus using Fluorescein-Poly GT as substrate at 100 nM

[6] = biological target: Serine/threonine-protein kinase B-raf (Homo sapiens, UniProt P15056, V600E); test: Inhibition of full length GST-tagged human recombinant BRAF V600E mutant expressed in baculovirus using Fluorescein-MAP2K1 as substrate
[7] = biological target: Tyrosine-protein kinase CSK (Homo sapiens) (UniProt P41240); conditions: 100 nM
Sequence of Tyrosine-protein kinase CSK (Homo sapiens) (P41240 2-450 limits assumed): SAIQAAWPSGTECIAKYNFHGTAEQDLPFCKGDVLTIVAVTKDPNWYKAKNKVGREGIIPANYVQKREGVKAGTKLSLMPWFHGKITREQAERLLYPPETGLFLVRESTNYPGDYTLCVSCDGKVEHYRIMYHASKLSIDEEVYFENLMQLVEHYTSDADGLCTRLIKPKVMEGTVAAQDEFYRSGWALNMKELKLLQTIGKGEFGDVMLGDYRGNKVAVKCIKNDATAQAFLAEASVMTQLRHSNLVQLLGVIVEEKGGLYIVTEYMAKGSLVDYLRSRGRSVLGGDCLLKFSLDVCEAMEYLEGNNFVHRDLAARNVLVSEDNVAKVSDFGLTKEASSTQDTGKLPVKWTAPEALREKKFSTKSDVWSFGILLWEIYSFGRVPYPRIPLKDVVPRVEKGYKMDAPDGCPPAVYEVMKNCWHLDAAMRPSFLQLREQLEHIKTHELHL
Description: Inhibition of His-tagged full length human recombinant CSK expressed in Escherichia coli using Fluorescein-Poly GT as substrate at 100 nM

[8] = test system: Tyrosine-protein kinase ABL1 (Homo sapiens), P00519 [T315I]; conditions: 100 nM
Description: Inhibition of His-tagged full length human recombinant ABL1 T315I mutant expressed in baculovirus using Fluorescein-Poly GT as substrate at 100 nM

[9] = Oral bioavailability in Swiss mouse plasma at 20 mg/kg by LC/MS/MS analysis; format: ADME, organism-based
[10] = biological target: Tyrosine-protein kinase BTK (Homo sapiens) (UniProt Q06187); conditions: 100 nM
Description: Inhibition of His-tagged full length human recombinant BTK expressed in baculovirus using Fluorescein-Poly GT as substrate at 100 nM

[11] = biological target: Macrophage-stimulating protein receptor (Homo sapiens) (UniProt Q04912); conditions: 100 nM
Description: Inhibition of GST-tagged human recombinant MST1R (983 to 1400 residues) expressed in baculovirus using Fluorescein-Poly GT as substrate at 100 nM

[12] = biological target: Tyrosine-protein kinase ABL1 (Homo sapiens, UniProt P00519, G250E); test: Inhibition of His-tagged full length human recombinant ABL G250E mutant expressed in baculovirus using Fluorescein-Poly GT as substrate
[13] = biological target: Macrophage colony-stimulating factor 1 receptor (Homo sapiens) (UniProt P07333); conditions: 100 nM
Description: Inhibition of His-tagged human recombinant CSF1R (538 to 910 residues) expressed in baculovirus using Fluorescein-Poly GT as substrate at 100 nM

[14] = biological target: 3-phosphoinositide-dependent protein kinase 1 (Homo sapiens) (UniProt O15530); conditions: 100 nM
Description: Inhibition of PDK1 (unknown origin) at 100 nM

[15] = biological target: Mitogen-activated protein kinase 14 (Homo sapiens) (UniProt Q16539); conditions: 100 nM
Description: Inhibition of GST-tagged full length human recombinant p38alpha expressed in Escherichia coli using Fluorescein-Poly GT as substrate at 100 nM

[16] = biological target: Ephrin type-B receptor 2 (Homo sapiens) (UniProt P29323); test: Inhibition of GST-tagged human recombinant EPHB2 (616 to 884 residues) expressed in baculovirus using Fluorescein-Poly GT as substrate at 100 nM
[17] = test system: A549; test: Antiproliferative activity against human A549 cells after 72 hrs by MTT assay; format: functional, cell-based; conditions: A549, 72 h
[18] = biological target: Testis-specific serine/threonine-protein kinase 2 (Homo sapiens) (UniProt Q96PF2); conditions: 100 nM
Sequence of Testis-specific serine/threonine-protein kinase 2 (Homo sapiens) (Q96PF2 whole entry): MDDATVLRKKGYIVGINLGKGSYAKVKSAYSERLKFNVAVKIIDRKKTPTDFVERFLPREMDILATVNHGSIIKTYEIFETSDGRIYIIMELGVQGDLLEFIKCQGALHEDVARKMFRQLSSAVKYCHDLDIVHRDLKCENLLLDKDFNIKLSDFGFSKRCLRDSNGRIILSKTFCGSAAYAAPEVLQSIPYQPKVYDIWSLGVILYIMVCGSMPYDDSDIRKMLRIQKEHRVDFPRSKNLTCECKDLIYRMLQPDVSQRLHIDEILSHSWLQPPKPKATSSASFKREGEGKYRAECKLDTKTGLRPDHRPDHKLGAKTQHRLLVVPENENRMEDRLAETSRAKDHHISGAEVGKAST
Description: Inhibition of His-tagged full length human recombinant TSSK2 expressed in baculovirus at 100 nM

[19] = biological target: Tyrosine-protein kinase FRK (Homo sapiens, UniProt P42685); conditions: 100 nM
Description: Inhibition of GST-tagged full length human recombinant FRK expressed in baculovirus using Fluorescein-Poly GT as substrate at 100 nM

[20] = biological target: Tyrosine-protein kinase ABL1 (Homo sapiens, UniProt P00519, E255K); test: Inhibition of His-tagged full length human recombinant ABL E255K mutant expressed in baculovirus using Fluorescein-Poly GT as substrate
[21] = biological target: Serine/threonine-protein kinase PLK1 (Homo sapiens) (UniProt P53350); conditions: 100 nM
Description: Inhibition of His-tagged full length human recombinant PLK1 expressed in baculovirus using at 100 nM

[22] = biological target: Tyrosine-protein kinase ITK/TSK (Homo sapiens) (UniProt Q08881); conditions: 100 nM
Description: Inhibition of GST-tagged full length human recombinant ITK expressed in baculovirus using Fluorescein-Poly GT as substrate at 100 nM

[23] = biological target: Serine/threonine-protein kinase Nek2 (Homo sapiens) (UniProt P51955); conditions: 100 nM
Description: Inhibition of HIS-tagged full length human recombinant NEK2 expressed in baculovirus using Fluorescein-PKC as substrate at 100 nM

[24] = biological target: Hepatocyte growth factor receptor (Homo sapiens) (UniProt P08581); conditions: 100 nM
Description: Inhibition of GST-tagged human recombinant cMET (956 to 1390 residues) expressed in baculovirus using Fluorescein-Poly GT as substrate at 100 nM

[25] = test system: Tyrosine-protein kinase ABL1 (Homo sapiens), P00519 [Y253F]; test: Inhibition of His-tagged full length human recombinant ABL Y253F mutant expressed in baculovirus using Fluorescein-Poly GT as substrate at 100 nM
[26] = biological target: Serine/threonine-protein kinase PAK 2 (Homo sapiens) (UniProt Q13177); conditions: 100 nM
Description: Inhibition of GST-tagged full length human recombinant PAK2 expressed in baculovirus at 100 nM

[27] = biological target: Tyrosine-protein kinase Lyn (Homo sapiens, UniProt P07948); test: Inhibition of GST-tagged full length human recombinant LYNA expressed in baculovirus using Fluorescein-Poly GT as substrate at 100 nM
Sequence of Tyrosine-protein kinase Lyn (P07948 2-512 limits assumed): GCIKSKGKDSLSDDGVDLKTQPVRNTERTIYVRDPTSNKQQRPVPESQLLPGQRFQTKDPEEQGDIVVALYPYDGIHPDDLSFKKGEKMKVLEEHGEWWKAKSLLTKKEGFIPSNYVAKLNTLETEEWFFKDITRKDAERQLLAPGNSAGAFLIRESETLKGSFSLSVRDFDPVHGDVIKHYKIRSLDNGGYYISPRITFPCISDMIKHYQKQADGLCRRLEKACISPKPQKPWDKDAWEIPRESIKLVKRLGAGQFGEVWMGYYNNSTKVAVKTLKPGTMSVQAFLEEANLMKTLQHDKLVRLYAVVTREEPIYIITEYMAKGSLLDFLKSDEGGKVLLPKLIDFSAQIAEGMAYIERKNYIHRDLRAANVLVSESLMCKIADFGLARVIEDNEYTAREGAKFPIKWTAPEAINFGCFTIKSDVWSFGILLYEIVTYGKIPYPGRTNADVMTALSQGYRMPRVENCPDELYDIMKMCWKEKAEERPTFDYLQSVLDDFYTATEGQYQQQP

[28] = Antiproliferative activity against human BxPC3 cells after 72 hrs by MTT assay; format: functional, cell-based; conditions: BXPC-3, 72 h
[29] = biological target: Ephrin type-B receptor 4 (Homo sapiens) (UniProt P54760); conditions: 100 nM
Sequence of Ephrin type-B receptor 4 (Homo sapiens) (P54760 whole entry): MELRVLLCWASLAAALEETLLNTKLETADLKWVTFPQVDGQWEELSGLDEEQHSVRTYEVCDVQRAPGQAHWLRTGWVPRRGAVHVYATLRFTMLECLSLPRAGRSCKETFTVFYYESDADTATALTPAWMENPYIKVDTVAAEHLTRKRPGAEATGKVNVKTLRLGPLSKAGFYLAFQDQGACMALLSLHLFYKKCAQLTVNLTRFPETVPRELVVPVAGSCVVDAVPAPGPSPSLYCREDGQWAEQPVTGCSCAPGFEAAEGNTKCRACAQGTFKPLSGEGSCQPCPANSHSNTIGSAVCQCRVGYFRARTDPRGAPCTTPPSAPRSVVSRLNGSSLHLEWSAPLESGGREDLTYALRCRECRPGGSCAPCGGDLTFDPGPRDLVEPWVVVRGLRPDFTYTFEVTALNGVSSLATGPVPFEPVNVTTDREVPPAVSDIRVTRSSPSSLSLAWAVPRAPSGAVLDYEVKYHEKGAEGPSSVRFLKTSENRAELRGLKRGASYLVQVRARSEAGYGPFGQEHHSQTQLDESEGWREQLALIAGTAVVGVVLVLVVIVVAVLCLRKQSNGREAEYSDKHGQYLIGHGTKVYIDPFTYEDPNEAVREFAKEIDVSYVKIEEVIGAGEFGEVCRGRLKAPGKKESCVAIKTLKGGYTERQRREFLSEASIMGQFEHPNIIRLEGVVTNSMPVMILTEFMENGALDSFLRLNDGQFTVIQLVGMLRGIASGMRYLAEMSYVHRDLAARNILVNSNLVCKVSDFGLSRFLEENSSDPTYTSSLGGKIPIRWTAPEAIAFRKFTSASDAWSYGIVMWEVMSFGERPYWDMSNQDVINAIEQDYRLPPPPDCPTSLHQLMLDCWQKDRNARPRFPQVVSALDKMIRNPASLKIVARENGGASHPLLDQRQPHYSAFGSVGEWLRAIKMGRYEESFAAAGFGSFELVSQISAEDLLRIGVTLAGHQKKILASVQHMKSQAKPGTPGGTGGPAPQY
Description: Inhibition of His-tagged human recombinant EPHB4 (561 to 987 residues) expressed in baculovirus using Fluorescein-Poly GT as substrate at 100 nM

[30] = Cmax in Swiss mouse plasma at 2 mg/kg, iv by LC/MS/MS analysis; format: ADME, organism-based; parameters: dose 2 mg/kg, route intravenous
[31] = biological target: Aurora kinase C (Homo sapiens) (UniProt Q9UQB9); conditions: 100 nM
Sequence of Aurora kinase C (Homo sapiens) (Q9UQB9 whole entry): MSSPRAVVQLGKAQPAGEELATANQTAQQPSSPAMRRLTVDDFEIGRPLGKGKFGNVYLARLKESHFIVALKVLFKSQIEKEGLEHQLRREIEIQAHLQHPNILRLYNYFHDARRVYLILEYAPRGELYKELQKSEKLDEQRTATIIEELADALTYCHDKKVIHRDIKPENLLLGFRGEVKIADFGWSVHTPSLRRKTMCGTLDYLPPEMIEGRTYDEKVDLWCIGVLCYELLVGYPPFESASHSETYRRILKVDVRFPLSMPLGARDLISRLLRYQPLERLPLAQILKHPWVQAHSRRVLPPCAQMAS
Description: Inhibition of full length His-tagged human recombinant Aurora C expressed in baculovirus using Fluorescein-CREBtide as substrate at 100 nM

[32] = biological target: Megakaryocyte-associated tyrosine-protein kinase (Homo sapiens) (UniProt P42679); conditions: 100 nM
Description: Inhibition of His-tagged full length human recombinant MATK expressed in Escherichia coli using Fluorescein-Poly GT as substrate at 100 nM

[33] = biological target: MAP kinase-activated protein kinase 5 (Homo sapiens) (UniProt Q8IW41); conditions: 100 nM
Sequence of MAP kinase-activated protein kinase 5 (Homo sapiens) (Q8IW41 whole entry): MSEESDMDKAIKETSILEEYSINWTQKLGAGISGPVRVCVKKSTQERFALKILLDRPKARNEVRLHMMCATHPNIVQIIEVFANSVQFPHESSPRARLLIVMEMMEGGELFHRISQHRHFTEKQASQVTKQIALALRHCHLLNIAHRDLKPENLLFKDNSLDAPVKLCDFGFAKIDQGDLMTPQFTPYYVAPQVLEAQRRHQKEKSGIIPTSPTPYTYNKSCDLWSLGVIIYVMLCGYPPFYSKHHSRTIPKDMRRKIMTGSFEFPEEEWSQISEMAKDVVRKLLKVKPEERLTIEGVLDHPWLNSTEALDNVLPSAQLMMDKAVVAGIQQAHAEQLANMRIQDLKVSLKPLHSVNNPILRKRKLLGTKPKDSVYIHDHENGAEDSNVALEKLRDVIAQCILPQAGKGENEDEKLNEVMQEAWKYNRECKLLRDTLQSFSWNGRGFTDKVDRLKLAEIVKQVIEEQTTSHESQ
Description: Inhibition of His-tagged full length human recombinant MAPKAPK5 expressed in baculovirus at 100 nM

[34] = biological target: Vascular endothelial growth factor receptor 1 (Homo sapiens) (UniProt P17948); conditions: 100 nM
Description: Inhibition of GST-tagged human recombinant VEGFR1 (781 to 1338 residues) expressed in baculovirus using Fluorescein-Poly GT as substrate at 100 nM

[35] = biological target: Protein kinase C epsilon type (Homo sapiens) (UniProt Q02156); conditions: 100 nM
Description: Inhibition of full length human recombinant PKCepsilon expressed in baculovirus using Fluorescein-PKC as substrate at 100 nM

[36] = biological target: Vascular endothelial growth factor receptor 2 (Homo sapiens) (UniProt P35968); test: Inhibition of full length His-tagged human recombinant VEGFR2 expressed in baculovirus using Fluorescein-Poly GT as substrate at 100 nM
[37] = biological target: Proto-oncogene tyrosine-protein kinase receptor Ret (Homo sapiens) (UniProt P07949); conditions: 100 nM
Description: Inhibition of GST-tagged human recombinant RET (658 to 1114 residues) expressed in baculovirus using Fluorescein-Poly GT as substrate at 100 nM

[38] = biological target: Ephrin type-A receptor 2 (Homo sapiens) (UniProt P29317); conditions: 100 nM
Description: Inhibition of GST-tagged human recombinant EPHA2 (560 to 976 residues) expressed in baculovirus using Fluorescein-Poly GT as substrate at 100 nM

[39] = biological target: Tyrosine-protein kinase receptor TYRO3 (Homo sapiens) (UniProt Q06418); conditions: 100 nM
Sequence of Tyrosine-protein kinase receptor TYRO3 (Homo sapiens) (Q06418 whole entry): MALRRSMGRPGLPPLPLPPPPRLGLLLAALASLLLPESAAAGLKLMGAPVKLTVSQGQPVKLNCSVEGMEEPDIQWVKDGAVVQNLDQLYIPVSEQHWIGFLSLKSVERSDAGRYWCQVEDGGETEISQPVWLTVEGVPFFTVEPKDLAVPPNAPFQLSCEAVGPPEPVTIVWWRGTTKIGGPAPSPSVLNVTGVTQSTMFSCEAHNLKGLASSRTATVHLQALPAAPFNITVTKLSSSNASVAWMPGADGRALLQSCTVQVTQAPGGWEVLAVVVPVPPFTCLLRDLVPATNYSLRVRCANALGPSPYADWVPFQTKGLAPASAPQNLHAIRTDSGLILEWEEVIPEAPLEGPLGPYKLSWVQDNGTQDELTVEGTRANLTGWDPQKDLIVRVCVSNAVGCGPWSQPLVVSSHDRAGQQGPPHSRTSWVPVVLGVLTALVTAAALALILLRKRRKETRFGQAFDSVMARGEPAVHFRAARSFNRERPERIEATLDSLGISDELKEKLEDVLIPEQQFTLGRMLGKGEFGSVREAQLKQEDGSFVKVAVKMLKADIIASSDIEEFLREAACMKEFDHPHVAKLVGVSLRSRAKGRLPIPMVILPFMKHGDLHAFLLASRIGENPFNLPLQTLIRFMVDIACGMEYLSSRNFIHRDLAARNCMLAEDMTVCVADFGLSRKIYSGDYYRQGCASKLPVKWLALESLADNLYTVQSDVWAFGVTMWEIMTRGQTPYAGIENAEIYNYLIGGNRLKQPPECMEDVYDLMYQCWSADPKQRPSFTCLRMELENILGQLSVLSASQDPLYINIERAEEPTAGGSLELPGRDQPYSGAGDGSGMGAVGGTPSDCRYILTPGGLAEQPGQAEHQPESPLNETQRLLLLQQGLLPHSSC
Description: Inhibition of GST-tagged human recombinant TYRO3 (451 to 890 residues) expressed in baculovirus using Fluorescein-Poly GT as substrate at 100 nM

[40] = test system: HT-29; test: Antiproliferative activity against human HT-29 cells after 72 hrs by MTT assay; format: functional, cell-based; conditions: HT-29, 72 h
[41] = biological target: Fibroblast growth factor receptor 1 (Homo sapiens) (UniProt P11362); conditions: 100 nM
Description: Inhibition of His-tagged human recombinant FGFR1 (308 to 731 residues) expressed in baculovirus using Fluorescein-Poly GT as substrate at 100 nM

[42] = biological target: Phosphorylase b kinase gamma catalytic chain, liver/testis isoform (Homo sapiens) (UniProt P15735); conditions: 100 nM
Description: Inhibition of human full length recombinant N-terminal GST-tagged PHKG2 expressed in baculovirus at 100 nM

Sequence of Protein kinase C theta type (Homo sapiens) (Q04759 whole entry, looked up): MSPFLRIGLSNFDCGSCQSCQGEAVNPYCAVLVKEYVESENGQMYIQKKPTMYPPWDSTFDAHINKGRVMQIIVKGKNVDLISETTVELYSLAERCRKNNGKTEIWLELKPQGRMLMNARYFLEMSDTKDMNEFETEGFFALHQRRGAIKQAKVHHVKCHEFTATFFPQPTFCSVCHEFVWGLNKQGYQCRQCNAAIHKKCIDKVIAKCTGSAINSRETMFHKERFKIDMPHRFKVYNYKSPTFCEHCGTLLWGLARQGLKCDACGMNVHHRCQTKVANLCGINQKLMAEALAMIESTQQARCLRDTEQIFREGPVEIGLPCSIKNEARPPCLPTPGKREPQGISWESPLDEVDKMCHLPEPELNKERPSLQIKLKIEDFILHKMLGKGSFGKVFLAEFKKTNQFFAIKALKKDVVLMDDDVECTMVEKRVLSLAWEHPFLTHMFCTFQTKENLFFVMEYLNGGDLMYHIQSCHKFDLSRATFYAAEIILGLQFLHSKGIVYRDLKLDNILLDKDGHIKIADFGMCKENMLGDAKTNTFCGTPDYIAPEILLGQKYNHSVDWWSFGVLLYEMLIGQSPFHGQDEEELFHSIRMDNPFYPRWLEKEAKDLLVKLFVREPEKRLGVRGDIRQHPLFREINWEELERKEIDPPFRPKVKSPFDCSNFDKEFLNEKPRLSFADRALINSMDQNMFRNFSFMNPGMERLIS

With `COC(=O)c1cc2cc(NCc3cc(NC(=O)c4cc(-n5cnc(C)c5)cc(C(F)(F)F)c4)ccc3C)cnc2[nH]1` the IC50 [1] was 131 nM, the Tmax [2] was 10 min and the inhibition [3] was under 40%. For the same compound, the inhibition [4] was under 40%, the inhibition [5] was under 40% and the IC50 [6] was 10 nM. For the same compound, the inhibition [7] was under 40%, the inhibition [8] was under 40% and the bioavailability [9] was 47%. The inhibition [10] was under 40%, the inhibition [11] was under 40% and the IC50 [12] was 46 nM. The inhibition [13] was under 40%, the inhibition [14] was under 40% and the inhibition [15] was under 40%. For the same compound, the inhibition [16] was over 80%, the EC50 [17] was 64 nM and the inhibition [18] was under 40%. It also gave an inhibition [19] of under 40%, an IC50 [20] of 73 nM and an inhibition [21] of under 40%. The inhibition [22] was under 40%, the inhibition [23] was under 40% and the inhibition [24] was under 40%. It also gave an inhibition [25] of over 80%, an inhibition [26] of under 40% and an inhibition [27] of over 80%. For the same compound, the EC50 [28] was 35 nM, the inhibition [29] was under 40% and the Cmax [30] was 853 ng/mL. For the same compound, the inhibition [31] was under 40%, the inhibition [32] was under 40% and the inhibition [33] was under 40%. The inhibition [34] was under 40%, the inhibition [35] was under 40% and the inhibition [36] was 46%. The inhibition [37] was under 40%, the inhibition [38] was under 40% and the inhibition [39] was under 40%. The EC50 [40] was 37 nM, the inhibition [41] was under 40% and the inhibition [42] was under 40%.

Source: ChEMBL document CHEMBL3808348, “Rational Design, Synthesis, and Biological Evaluation of 7-Azaindole Derivatives as Potent Focused Multi-Targeted Kinase Inhibitors” (J Med Chem, 2016)
